Here are results for 21 compounds from US20240383852A1, “ANTI-VIRAL COMPOUNDS” (INFEX Therapeutics Limited, priority 2021, published 2024).

What is called IC50 is the point on the concentration scale where inhibition reaches its midpoint. A word on the EC50: it is the concentration giving half of the maximal effect.

Like-named read-outs stand apart in the source and are kept apart here. Where only a bound is given, the exact number is not on record here.

One series deals with T1, SARS-CoV-2 PLpro (Severe acute respiratory syndrome coronavirus 2, UniProt P0DTD1).
T1 construct: containing 60 nM papain-like protease
Briefly: biochemical.

For series [1], the system named is human Hep G2 cells (ATCC HB-8065). Briefly: Cytotoxicity in Hep G2 cells (CellTiter-Glo). The class given is cell-based. On the technique in general: ATP-based viability assays read luminescence as a measure of living cells.
A further series relates to SARS-CoV-2. Briefly: Anti-viral potency in VERO E6 cells (cytopathic viral activity, crystal violet). It is filed as cell-based. The following applies: Severe acute respiratory syndrome coronavirus 2, Vero C1008, 48 h, read-out: SARS-COV-2 EC50 (μM).
[2] abbreviates: 60 nM papain-like protease, 50 μM Z-RLRGG-AMC, pH 7.5, 37° C., read-out: SARS-CoV-2 PLpro IC50.
Where [3] appears, read: Hep G2 cells, 100 μM test article, 24-hour exposure.

For the compound `COc1cc([C@@H](C)NC(=O)c2cc(N3CCN(C)CC3)ccc2C)ccc1OCCN1CCOCC1` [Example 293, N-[(1R)-1-[3-Methoxy-4-(2-morpholinoethoxy)phenyl]ethyl]-2-methyl-5-(4-methylpiperazin-1-yl)benzamide], the IC50 at SARS-CoV-2 PLpro (setting [2]) is < 2 µM. Besides, the “% Cell Viability” value in series [1] (setting [3]) is 102.3%. The EC50 in the series with SARS-CoV-2 was < 5 µM.

Turning to `COc1cc(OC)c([C@@H](C)NC(=O)c2cc(N3CCN(C)CC3)ccc2C)cc1-c1cnn(C)c1` [Example 215, N-[(1R)-1-[2,4-Dimethoxy-5-(1-methylpyrazol-4-yl)phenyl]ethyl]-2-methyl-5-(4-methylpiperazin-1-yl)benzamide], on SARS-CoV-2 PLpro (setting [2]), the IC50 is < 2 µM. In series [1] (setting [3]), the “% Cell Viability” value was determined as 80.1%. Also, the half-maximal effective concentration (EC50) with SARS-CoV-2 was < 5 µM.

On to `COc1ccc([C@@H](C)NC(=O)c2cc(N3CC4CNCC4C3)ccc2C)cc1-c1cnn(C)c1` (stereo partly drawn) [Example 261, 5-(2,3,3a,4,6,6a-Hexahydro-1H-pyrrolo[3,4-c]pyrrol-5-yl)-N-[(1R)-1-[4-methoxy-3-(1-methylpyrazol-4-yl)phenyl]ethyl]-2-methyl-benzamide], for which, at SARS-CoV-2 PLpro (setting [2]), the IC50 is < 2 µM. Moreover, in series [1] (setting [3]), the “% Cell Viability” value is on record as 49.2%. The EC50 in the series on SARS-CoV-2 was < 15 µM.

`Cc1ccc(N2CCN(C)CC2)cc1C(=O)N[C@H](C)c1cccc(-c2cn(C)nc2C)c1` [Example 61, N-[(1R)-1-[3-(1,3-Dimethylpyrazol-4-yl)phenyl]ethyl]-2-methyl-5-(4-methylpiperazin-1-yl)benzamide]: the concentration for half-maximal inhibition (IC50) at SARS-CoV-2 PLpro (setting [2]) was < 2 µM. Moreover, in series [1] (setting [3]), the “% Cell Viability” value was determined as 69.2%. Moreover, the EC50 in the series on SARS-CoV-2 was < 5 µM.

With `COc1ccc([C@@H](C)NC(=O)c2cc(N3C[C@H]4CC[C@@H](C3)N4C)ccc2C)cc1OC` [Example 11, N-[(1R)-1-(3,4-Dimethoxyphenyl)ethyl]-2-methyl-5-[(1R,5S)-8-methyl-3,8-diazabicyclo[3.2.1]octan-3-yl]benzamide], the half-maximal inhibitory concentration (IC50) on SARS-CoV-2 PLpro is < 2 µM. The “% Cell Viability” value in series [1] (human, 24 h, 100 μM) is recorded as 95.6%. In addition, in the series with SARS-CoV-2, the EC50 is < 5 µM.

Regarding `COc1ccc([C@@H](C)NC(=O)c2cc(N3CCN(C)CC3)ccc2C)cc1-c1nccs1` [Example 251, N-[(1R)-1-(4-Methoxy-3-thiazol-2-yl-phenyl)ethyl]-2-methyl-5-(4-methylpiperazin-1-yl)benzamide], on SARS-CoV-2 PLpro (setting [2]), the IC50 is < 2 µM. For the same compound, the “% Cell Viability” value in series [1] (setting [3]) is listed as 63.2%. For the same compound, the EC50 in the series with SARS-CoV-2 was < 5 µM.

Regarding `COc1cc(-c2cc(C(=O)N(C)C)n(C)c2)cc([C@@H](C)NC(=O)c2cc(N3CCN(C)CC3)ccc2C)c1` [Example 289, 4-[3-Methoxy-5-[(1R)-1-[[2-methyl-5-(4-methylpiperazin-1-yl)benzoyl]amino]ethyl]phenyl]-N,N,1-trimethyl-pyrrole-2-carboxamide], at SARS-CoV-2 PLpro (setting [2]), the IC50 was < 2 µM. Further, in series [1] (setting [3]), the “% Cell Viability” value was determined as 59.5%. Moreover, the EC50 with SARS-CoV-2 is < 5 µM.

For the compound `COc1cc(-c2cnn(C)c2)cc([C@@H](C)NC(=O)c2cc(N3CCNCC3)ccc2C)c1` [Example 235, N-[(1R)-1-[3-Methoxy-5-(1-methylpyrazol-4-yl)phenyl]ethyl]-2-methyl-5-piperazin-1-yl-benzamide], on SARS-CoV-2 PLpro (setting [2]), the IC50 is < 2 µM. Also, the “% Cell Viability” value in series [1] (setting [3]) is given as 90.6%. Moreover, the EC50 in the series on SARS-CoV-2 was < 5 µM.

As to `COc1cc(-c2cn(C)nc2C)cc([C@@H](C)NC(=O)c2cc(N3C[C@H]4C[C@@H]3CN4C)ccc2C)c1` [Example 230, N-[(1R)-1-[3-(1,3-Dimethylpyrazol-4-yl)-5-methoxy-phenyl]ethyl]-2-methyl-5-[(1R,4R)-5-methyl-2,5-diazabicyclo[2.2.1]heptan-2-yl]benzamide], the IC50 at SARS-CoV-2 PLpro (setting [2]) is < 2 µM. The “% Cell Viability” value in series [1] (setting [3]) worked out at 38.3%. The half-maximal effective concentration (EC50) with SARS-CoV-2 is < 5 µM.

Take `COc1ccc([C@@H](C)NC(=O)c2cc(N3CCN(C)CC3)ccc2C)cc1-c1cnn(C)c1` [Example 205, N-[(1R)-1-[4-Methoxy-3-(1-methylpyrazol-4-yl)phenyl]ethyl]-2-methyl-5-(4-methylpiperazin-1-yl)benzamide]: the IC50 at SARS-CoV-2 PLpro (setting [2]) is < 2 µM. Moreover, the “% Cell Viability” value in series [1] (setting [3]) is recorded as 105.8%. For the same compound, in the series with SARS-CoV-2, the EC50 is < 5 µM.

Turning to `Cc1ccc(N2CCN(C)CC2)cc1C(=O)N[C@H](C)c1cccc(-c2cc(C(=O)N(C)C)n(C)c2)c1` [Example 102, N,N,1-Trimethyl-4-[3-[(1R)-1-[[2-methyl-5-(4-methylpiperazin-1-yl)benzoyl]amino]ethyl]phenyl]pyrrole-2-carboxamide], the IC50 on SARS-CoV-2 PLpro (setting [2]) is < 2 µM. In addition, the “% Cell Viability” value in series [1] (setting [3]) stood at 75.9%. Besides, the EC50 in the series on SARS-CoV-2 is < 5 µM.

As for `COCCOc1ccc([C@@H](C)NC(=O)c2cc(N3CCN(C)CC3)ccc2C)cc1-c1cnn(C)c1` [Example 280, N-[(1R)-1-[4-(2-Methoxyethoxy)-3-(1-methylpyrazol-4-yl)phenyl]ethyl]-2-methyl-5-(4-methylpiperazin-1-yl)benzamide], on SARS-CoV-2 PLpro (setting [2]), the IC50 was < 2 µM. Moreover, the “% Cell Viability” value in series [1] (setting [3]) was determined as 76.7%. Further, the EC50 in the series on SARS-CoV-2 was < 5 µM.

Take `COc1ccc([C@@H](C)NC(=O)c2cc(N3CC4CN(C)CC4C3)ccc2C)cc1OC` (stereo partly drawn) [Example 9, N-[(1R)-1-(3,4-Dimethoxyphenyl)ethyl]-2-methyl-5-(2-methyl-1,3,3a,4,6,6a-hexahydropyrrolo[3,4-c]pyrrol-5-yl)benzamide]: the IC50 at SARS-CoV-2 PLpro (setting [2]) is < 5 µM. Moreover, the “% Cell Viability” value in series [1] (setting [3]) stood at 96.5%. The EC50 in the series with SARS-CoV-2 was < 15 µM.

On to `Cc1ccc(N2CCN(C)CC2)cc1C(=O)N[C@H](C)c1ccc(Cl)c(-c2cnn(C)c2)c1` [Example 252, N-[(1R)-1-[4-Chloro-3-(1-methylpyrazol-4-yl)phenyl]ethyl]-2-methyl-5-(4-methylpiperazin-1-yl)benzamide], for which the IC50 at SARS-CoV-2 PLpro (setting [2]) is < 2 µM. Besides, the “% Cell Viability” value in series [1] (setting [3]) was 49.4%. For the same compound, in the series on SARS-CoV-2, the EC50 was < 5 µM.

As for `COc1ccc([C@@H](C)NC(=O)c2cc(N3C[C@H]4C[C@@H]3CN4C)ccc2C)cc1-c1cnn(C)c1` [Example 227, N-[(1R)-1-[4-Methoxy-3-(1-methylpyrazol-4-yl)phenyl]ethyl]-2-methyl-5-[(1R,4R)-5-methyl-2,5-diazabicyclo[2.2.1]heptan-2-yl]benzamide], at SARS-CoV-2 PLpro (setting [2]), the IC50 is < 2 µM. For the same compound, the “% Cell Viability” value in series [1] (setting [3]) is 89.9%. Further, the EC50 with SARS-CoV-2 was < 5 µM.

With `CCn1cc(-c2cccc([C@@H](C)NC(=O)c3cc(N4CCN(C)CC4)ccc3C)c2)cn1` [Example 64, N-[(1R)-1-[3-(1-Ethylpyrazol-4-yl)phenyl]ethyl]-2-methyl-5-(4-methylpiperazin-1-yl)benzamide], at SARS-CoV-2 PLpro (setting [2]), the IC50 was < 2 µM. Moreover, the “% Cell Viability” value in series [1] (setting [3]) came to 78.6%. Besides, the EC50 in the series on SARS-CoV-2 was < 5 µM.

For the compound `COc1cc(-c2cnn(C)c2)cc([C@@H](C)NC(=O)c2cc(N3C[C@H]4CC[C@@H](C3)N4)ccc2C)c1` [Example 272, 5-[(1R,5S)-3,8-diazabicyclo[3.2.1]octan-3-yl]-N-[(1R)-1-[3-methoxy-5-(1-methyl-1H-pyrazol-4-yl)phenyl]ethyl]-2-methylbenzamide], on SARS-CoV-2 PLpro, the IC50 is < 2 µM. Further, in series [1] (human, 24 h, 100 μM), the “% Cell Viability” value came to 74.3%. In addition, the EC50 in the series on SARS-CoV-2 was < 5 µM.

`COc1ccc([C@@H](C)NC(=O)c2cc(N3CCN(C)CC3)ccc2C)cc1OCC1CC1` [Example 296, N-[(1R)-1-[3-(Cyclopropylmethoxy)-4-methoxy-phenyl]ethyl]-2-methyl-5-(4-methylpiperazin-1-yl)benzamide]: the IC50 on SARS-CoV-2 PLpro (setting [2]) was < 2 µM. Further, the “% Cell Viability” value in series [1] (setting [3]) worked out at 76.1%. For the same compound, the EC50 in the series with SARS-CoV-2 was < 15 µM.

As for `COc1cc([C@@H](C)NC(=O)c2cc(N3CCN(C)CC3)ccc2C)ccc1-c1cnn(C)c1` [Example 306, N-[(1R)-1-[3-Methoxy-4-(1-methylpyrazol-4-yl)phenyl]ethyl]-2-methyl-5-(4-methylpiperazin-1-yl)benzamide], the IC50 at SARS-CoV-2 PLpro (setting [2]) was < 2 µM. The “% Cell Viability” value in series [1] (setting [3]) is 88.4%. In the series with SARS-CoV-2, the EC50 was < 5 µM.

With `COc1ccc([C@@H](C)NC(=O)c2cc(C3CCN(C)CC3)ccc2C)cc1-c1cnn(C)c1` [Example 300, N-[(1R)-1-[4-Methoxy-3-(1-methylpyrazol-4-yl)phenyl]ethyl]-2-methyl-5-(1-methyl-4-piperidyl)benzamide], the IC50 on SARS-CoV-2 PLpro (setting [2]) was < 2 µM. For the same compound, the “% Cell Viability” value in series [1] (setting [3]) is recorded as 74.7%. Also, the EC50 with SARS-CoV-2 was < 5 µM.

Regarding `COc1cc(-c2cnn(C)c2)cc([C@@H](C)NC(=O)c2cc(N3CCN(CC4CC4)CC3)ccc2C)c1` [Example 245, 5-[4-(Cyclopropylmethyl)piperazin-1-yl]-N-[(1R)-1-[3-methoxy-5-(1-methylpyrazol-4-yl)phenyl]ethyl]-2-methyl-benzamide], the IC50 on SARS-CoV-2 PLpro (setting [2]) was < 2 µM. For the same compound, the “% Cell Viability” value in series [1] (setting [3]) came out at 58.4%. In addition, the EC50 with SARS-CoV-2 is < 5 µM.
